Source: ChEMBL document CHEMBL1201862, “PubChem BioAssay data set” (2004)
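Assay format: 96-well plates, 48-hour exposure. GI50 = concentration required for 50% inhibition of growth.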 Calls of active or inactive are those of the source. Rule as the data show it: active = GI50 up to about 1.1 µM and inactive = higher.

Legend:
Assay in all cases: DTP human tumour cell line panel, 48 h
[1] = tested on: CAKI-1
[2] = tested on: CCRF-CEM
[3] = tested on: COLO 205
[4] = tested on: EKVX
[5] = tested on: HL-60
[6] = tested on: HOP-62
[7] = tested on: HOP-92
[8] = tested on: KM-20L2
[9] = tested on: LOX IMVI
[10] = tested on: MDA-N
[11] = tested on: MOLT-4
[12] = tested on: Malme-3M
[13] = tested on: NCI-H226
[14] = tested on: NCI-H23
[15] = tested on: OVCAR-5
[16] = tested on: PC-3
[17] = tested on: RPMI-8226
[18] = tested on: SK-OV-3
[19] = tested on: SN12C
[20] = tested on: U-251

| Compound | GI50 [1] | GI50 [2] | GI50 [3] | GI50 [4] | GI50 [5] | GI50 [6] | GI50 [7] | GI50 [8] | GI50 [9] | GI50 [10] | GI50 [11] | GI50 [12] | GI50 [13] | GI50 [14] | GI50 [15] | GI50 [16] | GI50 [17] | GI50 [18] | GI50 [19] | GI50 [20] |
| --- | --- | --- | --- | --- | --- | --- | --- | --- | --- | --- | --- | --- | --- | --- | --- | --- | --- | --- | --- | --- |
| COc1cc(OC(=O)c2ccccc2)cc2c1C(=O)C=CC2=O | 20.6 µM (inactive) | 0.543 µM (active) | 16.2 µM (inactive) | 13.2 µM (inactive) | 0.556 µM (active) | 42.9 µM (inactive) | 2.16 µM (inactive) | > 56.9 µM (inactive) | 12.3 µM (inactive) | 6.44 µM (inactive) | 1.73 µM (inactive) | 15.3 µM (inactive) | 28.4 µM (inactive) | 16.2 µM (inactive) | 32.7 µM (inactive) | 14 µM (inactive) | 2.93 µM (inactive) | 20 µM (inactive) | 19.5 µM (inactive) | 16.4 µM (inactive) |
| O=C(O)c1ccc([I+]c2ccccc2)cc1 | > 100 µM (inactive) | > 100 µM (inactive) | > 100 µM (inactive) | > 100 µM (inactive) | > 100 µM (inactive) | > 100 µM (inactive) | > 100 µM (inactive) | > 100 µM (inactive) | > 100 µM (inactive) | – | > 100 µM (inactive) | > 100 µM (inactive) | > 100 µM (inactive) | > 100 µM (inactive) | > 100 µM (inactive) | – | > 100 µM (inactive) | > 100 µM (inactive) | > 100 µM (inactive) | > 100 µM (inactive) |
| CC(/C(=N/NC(=O)C(N)=O)c1c(Cl)ccc(Cl)c1O)C1(O)C(=O)Nc2ccccc21 (stereo unspecified) | 42.1 µM (inactive) | 31.8 µM (inactive) | 23.2 µM (inactive) | 43.3 µM (inactive) | 26 µM (inactive) | > 100 µM (inactive) | 27.8 µM (inactive) | 56.2 µM (inactive) | 30.1 µM (inactive) | – | – | 64.9 µM (inactive) | 29.3 µM (inactive) | 50.6 µM (inactive) | 34.8 µM (inactive) | – | – | > 100 µM (inactive) | 70.3 µM (inactive) | 50.1 µM (inactive) |
| CCOc1ccc(/N=N/c2ccc3oc(=O)c(/C(C)=N/NC(=O)CC(=O)Nc4cccc(OC)c4)cc3c2)cc1 | – | 3.16 µM (inactive) | 28.1 µM (inactive) | 19.4 µM (inactive) | 3.64 µM (inactive) | 17.9 µM (inactive) | 19.1 µM (inactive) | > 31.6 µM (inactive) | 17.2 µM (inactive) | – | 3.56 µM (inactive) | 16.8 µM (inactive) | > 39.7 µM (inactive) | 17.5 µM (inactive) | > 46.6 µM (inactive) | – | 8.53 µM (inactive) | 38.8 µM (inactive) | 15.6 µM (inactive) | 10.6 µM (inactive) |
